Experimental data from paper PMC6382835, “A critical evaluation of TRPA1-mediated locomotor behavior in zebrafish as a screening tool for novel anti-nociceptive drug discovery” (Scientific Reports, 2019).
Read-outs that look alike come from different tables or passages of the source.

Target: T1, zebrafish TRPA1a (zTRPA1a) (Danio rerio, UniProt Q5UM15)
T1 sequence (Q5UM15 1-1115): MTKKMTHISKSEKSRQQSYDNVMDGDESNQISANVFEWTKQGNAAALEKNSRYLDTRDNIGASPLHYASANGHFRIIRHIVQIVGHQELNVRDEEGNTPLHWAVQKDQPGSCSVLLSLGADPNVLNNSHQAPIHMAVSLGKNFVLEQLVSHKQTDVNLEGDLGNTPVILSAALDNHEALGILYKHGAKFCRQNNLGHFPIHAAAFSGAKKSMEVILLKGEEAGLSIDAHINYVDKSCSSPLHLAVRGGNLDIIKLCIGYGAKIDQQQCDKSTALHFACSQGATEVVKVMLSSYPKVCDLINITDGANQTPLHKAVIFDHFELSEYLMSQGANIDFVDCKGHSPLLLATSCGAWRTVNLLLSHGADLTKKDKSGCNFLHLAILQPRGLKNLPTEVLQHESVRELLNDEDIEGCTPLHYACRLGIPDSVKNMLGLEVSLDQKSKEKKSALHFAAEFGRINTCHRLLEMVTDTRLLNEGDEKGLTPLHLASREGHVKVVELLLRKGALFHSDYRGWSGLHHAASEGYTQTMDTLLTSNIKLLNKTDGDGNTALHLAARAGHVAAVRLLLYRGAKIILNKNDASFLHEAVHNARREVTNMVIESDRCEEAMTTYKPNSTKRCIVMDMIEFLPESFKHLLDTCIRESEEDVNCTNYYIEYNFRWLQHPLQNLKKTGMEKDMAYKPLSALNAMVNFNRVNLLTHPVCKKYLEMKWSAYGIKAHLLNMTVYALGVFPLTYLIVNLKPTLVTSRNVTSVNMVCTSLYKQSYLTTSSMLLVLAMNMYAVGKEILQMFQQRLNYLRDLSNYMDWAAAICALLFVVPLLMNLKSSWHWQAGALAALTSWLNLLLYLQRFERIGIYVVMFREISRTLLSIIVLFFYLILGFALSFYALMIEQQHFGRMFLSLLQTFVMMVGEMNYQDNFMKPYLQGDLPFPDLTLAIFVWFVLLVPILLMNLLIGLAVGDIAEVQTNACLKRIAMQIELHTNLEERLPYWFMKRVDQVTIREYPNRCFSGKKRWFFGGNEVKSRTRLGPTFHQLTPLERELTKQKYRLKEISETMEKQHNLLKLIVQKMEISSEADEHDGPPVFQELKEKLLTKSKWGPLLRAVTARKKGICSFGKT
Test: FLIPR calcium signaling assay in zTRPA1a-transfected HEK293 cells
Type: cell-based
Description: The cells were maintained in a 37 °C incubator with consistent 5% CO2. […] Experiments were carried out with the approval of the Institutional Biohazard Committee (#13-013-16).
Twenty-five µl calcium sensitive Fluorescent Imaging Plate Reader (FLIPR) Calcium 6 assay dye (#R8190, Molecular Devices, CA, USA) was added to each well of a 384-well plate containing HEK293 cells transiently expressing mTRPA1, zTRPA1a, and zTRPA1b, respectively. The cells were incubated for an hour prior to the recording of intracellular calcium levels in a FlexStation3 Multi-Mode Microplate Reader (#R8190, Molecular Devices) as previously described. […] During the assay, the cells were challenged by a 5x ASP7663 solution or 1% DMSO solution at the 20 seconds time point, and both solutions were diluted in calcium buffer. Relative fluorescence units (RFU) were measured for 120 seconds period by the Flexstation. […] For each specific antagonist concentration we plotted Log(dose ratio-1) against the antagonist concentration in a Schild plot. The dose ratio (A’/A) equals the EC50 of the agonist (ASP7665) in the presence of a concentration of the antagonist (A’) divided by the EC50 of the agonist in the absence of antagonist (A). The x-intercept of the Schild plot was used to identify the antagonist-receptor affinity (pA2).
All data are presented as means ± standard error of the mean (SEM). For our in vitro statistical analysis, AUC of calcium influx (RFU) was measured to plot dose-response curves, which were further analyzed by nonlinear regression analysis. Mean RFU of the first 10 seconds was used as a baseline of the AUC. EC50 values of the dose-response curves were further used to plot Schild curves, and the curves were analyzed with linear regression analysis. For the mice von Frey test, mechanical thresholds were analyzed with two-way ANOVA followed by a Bonferonni test for multiple comparison analysis. For the zebrafish behavior test, the data from the first five seconds following drug administration were excluded, as zebrafish displacement during that period was highly influenced by liquid dispensing. AUC of all curves were measured and analyzed by one-way ANOVA. The post-hoc analysis was conducted with the Tukey’s or Dunnett’s multiple comparisons unless it stated otherwise. […] For our time-course average displacement graph, we used 2nd degree polynomial smoothing for a better representation; however, we used data before smoothing for all statistical analysis and quantification. All in vitro and in vivo data were evaluated using GraphPad Prism 7 (GraphPad Software, La Jolla, CA) unless it stated otherwise.

[1] = agonist calcium influx, zTRPA1a-transfected HEK293, read-out: EC50 (potency in µM)

With CC(C)CN1C(=O)/C(=C/C(=O)O)c2cccc(F)c21 [ASP7663] the “pEC50 (AITC given as EC50)” value (agonist calcium influx, AUC of RFU, zTRPA1a-transfected HEK293) was 3.9 ± 0.18 and the EC50 [1] was 118 µM.
In the case of CC(C)c1ccc(NC(=O)Cn2cnc3c2c(=O)n(C)c(=O)n3C)cc1 [HC-030031], the “calcium influx by antagonist alone” value (316 µM, zTRPA1a-transfected cells) is reported as “could produce an influx of intracellular calcium”, the “pEC50 (weak agonist activity)” value (HC030031 alone, zTRPA1a-transfected HEK293, Supplemental Fig. 6) is reported as 2.85 ± 0.19 and the “pA2 expressed in µM” value (Schild plot against ASP7663-mediated calcium influx, zTRPA1a) is reported as 26.8 µM. For the same compound, the pA2 (Schild plot against ASP7663-mediated calcium influx, zTRPA1a, only two antagonist doses) was 4.6 ± 0.2 and the Schild slope (zTRPA1a, n = 3) was 0.84 ± 0.22.
With C=CCN=C=S [AITC, allyl isothiocyanate] the EC50 (agonist calcium influx, AUC of RFU, zTRPA1a-transfected HEK293, read-out: pEC50 (AITC given as EC50) (converted)) was 25.1 µM and the EC50 [1] was 26.6 µM.
